Patent US7169815B2, “3-methoxybenzyl thiourea derivatives and improved lipid compositions containing same” (The United States of America as represented by the …, priority 2000, dated 2007)
In brackets after ≈: the same amount, converted by molar mass. Read-outs that look alike come from different tables or passages of the source.

Assays:
[1] = Oxidative Stability by Rotating Pressure Vessel (RBOT) of refined meadowfoam seed oil plus thiourea compounds; conditions: for Oxidative Stability (RBOT): Refined Meadowfoam Seed Oil plus 0.1% compound
Description: Another presently preferred method of determining oxidative stability of lipids and oils employs the Oxidative Stability by Rotating Pressure Vessel (RBOT) test. In this test, oxidative stability, determined according to the ASTM D2272-98 test method (ASTM, 2001, “Standard Test Method for Oxidation Stability of Steam Turbine Oils by Rotating Pressure Vessel,” in Book of Standards, Vol. 05.01., American Society for Testing and Materials, West Conshohocken, Pa.), measures the time for oxygen pressure to decrease in a closed stainless steel vessel containing a lipid or oil when heated with a copper coil catalyst. Oxygen taken up by the lipid or oil during the reaction is an indication of oil degradation.
In these experiments, Oxidative Stability by Rotating Pressure Vessel (RBOT) tests were performed with different 3-methoxybenzyl thiourea compounds synthesized in Example 3 that were mixed in different quantities with different mono- and polyunsaturated vegetable oils. Hexane was used to clean and store the copper coils, but all other aspects of the Oxidative Stability by Rotating Pressure Vessel (RBOT) test were the same as in the standard ASTM D2272–98 test method (ASTM, 2001, “Standard Test Method for Oxidation Stability of Steam Turbine Oils by Rotating Pressure Vessel,” in Book of Standards, Vol. 05.01., American Society for Testing and Materials, West Conshohocken, Pa.).

[2] = UVB and UVA molar absorptivities in chloroform; type: physicochemical; conditions: 0.01 mg/ml in chloroform; for UVBMAX Molar Absorptivity: Amax in 280–320 nm; for UVAMAX Molar Absorptivity: Amax in 320–400 nm
Procedure: The compounds synthesized in Example 3 were tested to determine their ability to absorb […] UVA light. UV spectra of quantitatively weighed and diluted samples (0.01 mg/ml) in chloroform were scanned from 244–450 nm at 240 nm/min on a Beckman DU 640 spectrophotometer (Beckman Coulter, Inc., Fullerton, Calif.). Amax in the 280–320 nm range was determined and converted to molar absorptivity for the UVB region, and Amax in the 320–400 nm range was determined and converted to molar absorptivity for the UVA region.

[3] = in vivo; conditions: Artemia salina (brine shrimp), in vivo; for LC50 at 24 h: other: exposure in seawater in microplate wells
Procedure: (§1) Brine shrimp eggs (Artemia salina) were obtained from Brine Shrimp Direct, Ogden, Utah and stored at 10° C. until used. Eggs (400 mg) were added to 1 l of deionized water containing 40 g of sea salts (Sigma Chemical Co., St. Louis, Mo.).
(§2) Serial dilutions were performed in 100 μl of seawater in triplicate in the wells of a 96-well microplate to give appropriate concentrations. Control wells for both water and DMSO were included with each experiment. […] The number of non-motile, and the total number of, naupli were counted in each well using a binocular microscope (10×).

[4] = system: Brine Shrimp (Artemia Salina); test: in vivo; conditions: for toxicity against brine shrimp, in words: as Table 7 shows; for LC50: in vivo
Procedure: as §1, §2

[5] = Solubility in refined meadowfoam seed oil (HPLC); type: physicochemical; conditions: oil or lipid, thermodynamic from solid, cooled to room temperature overnight
Procedure: Typical retention times were 7–9 min for the thioureas. Samples were weighed accurately (about 0.1 g) into 1.00 g of refined meadowfoam seed oil and heated to temperature (either 30° C. or 50° C.) for 4 h with occasional shaking. The samples were cooled to room temperature overnight, centrifuged and 0.3 g of the supernatant oil was removed and diluted with 1 ml CHCl3 for testing.

[6] = Decomposition temperature by differential scanning calorimetry; type: physicochemical; conditions: DSC, onset of decrease in slope of temperature-heat flow curve; unit not given (scans in ° C.)
Procedure: A dual cell Perkin Elmer differential scanning calorimeter (PE DSC 7, Norwalk, Conn.) was used to determine the thermal transitions of the compounds. All scans were carried out from 30° C. to 200° C. at a heating and cooling rate of 10° C./minute and 40° C./min, respectively, except for 1-(3-methoxybenzyl)-3-(1-propenyl) thiourea, for which the scans were carried out from 0° C. to 200° C. at a heating rate of 10° C./min, and 1-(3-methoxybenzyl)-3-octadecyl thiourea, for which both the heating and cooling rates were 10° C./min. 1,3-di(3-methoxybenzyl) thiourea and 1-(3-methoxybenzyl)-3-dodecyl thiourea were heated to 300° C., and 1-(3-methoxybenzyl)-3-(4-methoxybenzoyl) thiourea was heated to 250° C. to determine the decomposition temperature. The decomposition temperature was taken as the onset of a decrease in the slope of the temperature-heat flow DSC curve. The first heating curve was recorded in all cases, and liquid nitrogen was used to quench the samples after the first heating.

[7] = Behaviour on addition of water to DMSO solution (sample preparation); type: physicochemical; conditions: dissolved in 50 μl DMSO, water added to make 1 mg/ml
Procedure: Test compounds (1–2 mg) were originally made up at a concentration of 1 mg/ml in artificial seawater, except for water insoluble compounds, which were dissolved in 50 μl of dimethyl sulfoxide (DMSO) prior to adding enough water to make a 1 mg/ml solution. Serial dilutions were performed in 100 μl of seawater in triplicate in the wells of a 96-well microplate to give appropriate concentrations. Control wells for both water and DMSO were included with each experiment. A 100 μl solution of naupli (10–30) was added to each well, and the covered plate was incubated for 24 h at 27° C. The number of non-motile, and the total number of, naupli were counted in each well using a binocular microscope (10×). LC50 values were then calculated by Probit analysis (Finney, D. J., 1971, “Probit Analysis,” 3rd Ed.; University Press: Cambridge [Eng.]).

[8] = Oxidative Stability Index (OSI) of refined meadowfoam seed oil plus additives
Description: A presently preferred method of determining oxidative stability of lipids and oils employs the Oxidative Stability Index (OSI), which determines the oxidative stability of an oil by passing air through a sample under stringent temperature control. (Firestone, Oxidative Stability Index (OSI): Official Methods of Recommended Practices of the American Oil Chemists' Society (AOCS), 4th Ed. American Oil Chemists Society, Champaign, Ill., AOCS Official Method Cd 12b-92, 1993.) In this method, a stream of air is passed through the oil sample, which aids in the rapid degradation of the triglyceride into volatile organic acids. The air stream flushes the volatile acids from the oil into a conductivity cell containing water where the acids are solubilized. These acids, once dissolved in the water solution, disassociate into ions, thus changing the conductivity of the water. Therefore, a continuous measure of the conductivity of the cell by computer will indicate when a rapid rise in the conductivity occurs that corresponds to the induction point, oxidative failure of the sample. The time to the induction point is the OSI time. […] Saturated fatty acid methyl ester (FAME) standards commercially available from Alltech Associates (Deerfield, Ill.) may be used to calibrate the OSI determinations.
OSI determinations may be performed on an oxidative stability instrument manufactured by Omnion (Rockland, Mass.) using the AOCS method described in the above-disclosed Firestone reference. Lipid or oil samples may be run at 110° C. and FAMEs may be tested at 90° C., with air flow set at 35 kPa with a resulting velocity of about 140 ml/min. A presently preferred method for determining OSI values is described by T. A. Isbell et al., “Oxidative Stability Index of Vegetable Oils in Binary Mixtures with Meadowfoam Oil,” Industrial Crops and Products 9, 115–123 (1999).
Unless otherwise stated, Oxidative Stability Index (OSI) values were determined on 5.00 ±0.05 g lipid or oil samples in triplicate according to AOCS Official Method Cd 12b-92 (AOCS, 1993) at 90° C., 110° C. and/or 130° C. on an oxidative stability instrument manufactured by Omnion (Rockland, Mass.). Details of the procedure have been published by Isbell et al., “Oxidative Stability Index of Vegetable Oils in Binary Mixtures with Meadowfoam Oil,” Ind. Crops Prod. 9, 115–123 (1999). When compounds of the present invention were added to the lipid or oil sample being tested, the compounds (0.1% to 1.0% by weight) were added to the test lipid or oil (20 g) and dissolved or dispersed at room temperature before triplicate 5.00 g samples of lipid or oil with an added compound of the invention were weighed into the OSI test tube.
The 1,3-di(3-methoxybenzyl) thiourea prepared in Example 3 was mixed at 0.1%, 0.5% or 1.0% with refined meadowfoam seed oil (Lot #CW-4551, The Fanning Corp) and the oxidative stability of the mixtures was compared to that of refined meadowfoam seed oil at 130° C. The OSI times were 49.8 h, 159 h and 172 h, respectively, for the mixtures containing the thiourea compared to an OSI time of 14.9 h for this lot of refined meadowfoam seed oil with no additives at 130° C.
Thus, 1,3-bis(2-methoxyphenyl)-2-thiourea (Aldrich Chem Co.) added at 0. […] Likewise, 1,3-bis(3-methoxyphenyl)-2-thiourea at 0. 1% added to refined meadowfoam oil gave an OSI time of 27.0 h, an […] lower value than for the 1,3-di-(3-methoxybenzyl) thiourea produced in Example 3.

[9] = heated to 30° C. for 4 h, read-out: Solubility at 30° C.
[10] = heated to 50° C. for 4 h, read-out: Solubility at 50° C.
[11] = refined meadowfoam seed oil plus additive 0.1%, 130° C.
[12] = refined meadowfoam seed oil plus additive 0.5%, 130° C.
[13] = refined meadowfoam seed oil plus additive 1.0%, 130° C.
[14] = refined meadowfoam oil, 0.1% additive, 130° C.
[15] = refined meadowfoam oil, 0.1% additive, 130° C. (Example 8)

SMILES	Oxidative Stability (RBOT) [1] [min]	UVBMAX Molar Absorptivity [2]	UVAMAX Molar Absorptivity [2]	LC50 at 24 h [3] [µg/mL]	solubility at 4 h [5, 9] [µg/mL]	solubility at 4 h [5, 10] [µg/mL]	Decomposition Temperature [6] [°C]	further results
CCCCCCCCNC(=S)NCc1cccc(OC)c1 [1-(3-methoxybenzyl)-3-octyl thiourea]	43	2999	0.0	240 (≈ 778 µM)	3070 (≈ 9950 µM)	2490 (≈ 8070 µM)	> 200	Oxidative stability in the RBOT test, in words ([1]; addition of 0.1% compound): doubled; toxicity against brine shrimp, in words [4]: low toxicity; behaviour upon the addition of water [7]: precipitated out of solution
COc1cccc(C=O)c1 [3-methoxybenzaldehyde]	–	–	–	–	–	–	–	OSI Time [8, 11]: 17.5 h; OSI Time [8, 12]: 17.4 h; OSI Time [8, 13]: 18.9 h
COc1cccc(CC#N)c1 [3-methoxyphenyl acetonitrile]	–	–	–	–	–	–	–	OSI Time [8, 11]: 18.6 h; OSI Time [8, 12]: 19.2 h; OSI Time [8, 13]: 19.9 h
COc1ccc(C(=O)NC(=S)NCc2cccc(OC)c2)cc1 [1-(3-methoxybenzyl)-3-(4-methoxybenzoyl) thiourea]	24	34090	1420	58 (≈ 176 µM)	2760 (≈ 8350 µM)	1930 (≈ 5830 µM)	> 200	–
COc1ccc(O)c(C(C)(C)C)c1 [butylated hydroxy aniline (BHA), butylated hydroxy aniline, reference compound]	–	–	–	–	–	–	–	LC50 [4]: 12.2 µg/mL (≈ 67.7 µM)
COc1cccc(NC(=S)Nc2cccc(OC)c2)c1 [1,3-bis(3-methoxyphenyl)-2-thiourea]	–	–	–	–	–	–	–	OSI time lower than for 1,3-di-(3-methoxybenzyl) thiourea [8, 14]: 84%; OSI Time [8, 15]: 27.0 h
COc1cccc(CN)c1 [3-methoxybenzyl amine]	–	–	–	–	–	–	–	OSI Time [8, 11]: 22.9 h; OSI Time [8, 12]: 27.3 h; OSI Time [8, 13]: 32.6 h
COc1cccc(CNC(=S)NCc2ccccc2)c1 [1-(3-methoxybenzyl)-3-benzyl thiourea]	26	2357	0.0	31.6 (≈ 110 µM)	1050 (≈ 3670 µM)	1040 (≈ 3620 µM)	> 200	–
Cc1c(C)c2c(c(C)c1O)CC[C@@](C)(CCC[C@H](C)CCC[C@H](C)CCCC(C)C)O2 [D-α-tocopherol, reference compound]	–	–	–	–	–	–	–	LC50 [4]: >1000 µg/mL
COc1cccc(CN=C=S)c1 [3-methoxybenzyl isothiocyanate]	–	–	–	–	–	–	–	OSI Time [8, 11]: 19.1 h; OSI Time [8, 12]: 22.9 h; OSI Time [8, 13]: 24.0 h
CCCCCCCCCCCCCCCCCCNC(=S)NCc1cccc(OC)c1 [1-(3-methoxybenzyl)-3-octadecyl thiourea]	15	850	0.0	62.5 (≈ 139 µM)	280 (≈ 624 µM)	147 (≈ 328 µM)	> 200	behaviour upon the addition of water [7]: precipitated out of solution
O=C1O[C@H]([C@@H](O)CO)C(O)=C1O [ascorbic acid, reference compound]	–	–	–	315 (≈ 1790 µM)	–	–	–	–
O=C(O)/C=C/c1ccccc1 [trans-cinnamic acid, reference compound]	–	22350	54	–	–	–	–	–
COc1ccccc1NC(=S)Nc1ccccc1OC [1,3-bis(2-methoxyphenyl)-2-thiourea]	–	–	–	–	–	–	–	OSI time lower than for 1,3-di-(3-methoxybenzyl) thiourea [8, 14]: 34%; OSI Time [8, 15]: 37.1 h
C=CCNC(=S)NCc1cccc(OC)c1	24	2852	0.0	–	1670 (≈ 7070 µM)	981 (≈ 4150 µM)	> 200	LC50 [3]: 232 µg/mL (≈ 982 µM); toxicity against brine shrimp, in words [4]: low toxicity
